Consider 30 molecules from ChEMBL document CHEMBL3864183, “Development of ML390: A Human DHODH Inhibitor That Induces Differentiation in Acute Myeloid Leukemia” (ACS Med Chem Lett, 2016).

Values after ≈ are worked out from the molar mass of the structure shown.

The target in one series is Dihydroorotate dehydrogenase (quinone), mitochondrial (Homo sapiens, UniProt Q02127). The series can be described thus: Inhibition of human recombinant DHODH.
Chain of Dihydroorotate dehydrogenase (quinone), mitochondrial (Q02127 whole entry): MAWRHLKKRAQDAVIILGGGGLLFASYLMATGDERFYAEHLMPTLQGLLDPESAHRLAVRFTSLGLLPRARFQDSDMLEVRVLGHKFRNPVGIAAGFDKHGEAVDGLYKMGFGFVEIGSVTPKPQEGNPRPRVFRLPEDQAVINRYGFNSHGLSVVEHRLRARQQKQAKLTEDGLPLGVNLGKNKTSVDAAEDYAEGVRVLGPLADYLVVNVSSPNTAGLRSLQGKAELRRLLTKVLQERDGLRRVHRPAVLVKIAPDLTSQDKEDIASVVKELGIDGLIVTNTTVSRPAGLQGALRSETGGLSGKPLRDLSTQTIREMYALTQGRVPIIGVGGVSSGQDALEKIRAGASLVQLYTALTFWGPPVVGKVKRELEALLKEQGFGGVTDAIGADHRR
Conditions: not given
What is called IC50 is the concentration at which inhibition is half-maximal. As for `O=C(O)c1cccnc1Nc1ccc(Cl)cc1`, the IC50 was found to be 0.4 µM.

In the case of `COc1ccc(Nc2ccccc2C(=O)O)cc1`, the concentration for half-maximal inhibition (IC50) amounted to 10 µM.

Regarding `O=C(O)c1ccccc1Nc1ccc(Cl)cc1`, the 50% inhibitory concentration (IC50) worked out at 0.42 µM.

Regarding `N#Cc1ccc(C(=O)NCCC(=O)N[C@@H]2CCCc3ccccc32)cc1`, the IC50 came to 8.9 µM.

As to `O=C(CCNC(=O)c1ccc(C(F)(F)F)cc1)N[C@@H]1CCCc2ccccc21`, the IC50 came out at 0.91 µM.

Take `O=C(CCNC(=O)c1ccc(OC(F)(F)F)cc1)N[C@@H]1CCCc2ccccc21`: the IC50 worked out at 0.56 µM.

Take `O=C(CNC(=O)c1ccc(Cl)c(Cl)c1)N[C@@H]1CCCc2ccccc21`: the IC50 was over 20 µM.

Turning to `Cc1ccc(C(=O)NCCC(=O)N[C@@H]2CCCc3ccccc32)cc1`, the IC50 was 1.9 µM.

On to `O=C(CCNC(=O)c1ccc(F)cc1)N[C@@H]1CCCc2ccccc21`, for which the IC50 is 9.5 µM.

Take `O=C(CCNC(=O)c1cccc(Cl)c1)N[C@@H]1CCCc2ccccc21`: the IC50 was 7.4 µM.

As to `O=C(CCNC(=O)c1ccc(Cl)cc1)N[C@@H]1CCCc2ccccc21`, the IC50 turned out to be 1.3 µM.

`O=C(CCCNC(=O)c1ccc(Cl)c(Cl)c1)N[C@@H]1CCCc2ccccc21`: the half-maximal inhibitory concentration (IC50) is over 20 µM.

With `COc1ccc(C(=O)NCCC(=O)N[C@@H]2CCCc3ccccc32)cc1`, the 50% inhibitory concentration (IC50) came to 3.6 µM.

For `O=C(CCNC(=O)c1ccc2c(c1)OC(F)(F)O2)N[C@@H]1CCCc2ccccc21`, the IC50 stood at 2.7 µM.

Regarding `O=C(CCNC(=O)c1ccc(Cl)c(Cl)c1)N[C@@H]1CCCc2ccccc21`, the concentration for half-maximal inhibition (IC50) stood at 1.5 µM.

Regarding `O=C(CCCNC(=O)c1ccc(Cl)cc1)N[C@@H]1CCCc2ccccc21`, the IC50 was over 20 µM.

Regarding `O=C(CCNC(=O)c1ccccc1)N[C@@H]1CCCc2ccccc21`, the IC50 amounted to 12.4 µM.

As to `O=C(CNC(=O)c1ccc(C(F)(F)F)cc1)N[C@@H]1CCCc2ccccc21`, the IC50 was over 20 µM.

Turning to `O=C(O)c1cccnc1Nc1ccc(OC(F)(F)F)cc1`, the IC50 came to 0.5 µM.

With `O=C(O)c1cccnc1Nc1ccc(F)cc1`, the IC50 is 2.8 µM.

On to `O=C(O)c1cccnc1Nc1ccccc1`, for which the 50% inhibitory concentration (IC50) came out at 17.4 µM.

As to `O=C(CCCNC(=O)c1ccc(OC(F)(F)F)cc1)N[C@@H]1CCCc2ccccc21`, the IC50 is over 20 µM.

With `O=C(CNC(=O)c1ccc(Cl)cc1)N[C@@H]1CCCc2ccccc21`, the IC50 is over 20 µM.

Regarding `O=C(O)c1ccc(Cl)cc1Nc1ccccc1`, the concentration for half-maximal inhibition (IC50) is over 20 µM.

In the case of `O=C(CNC(=O)c1ccc(OC(F)(F)F)cc1)N[C@@H]1CCCc2ccccc21`, the IC50 was over 20 µM.

Regarding `O=C(CCCNC(=O)c1ccc(C(F)(F)F)cc1)N[C@@H]1CCCc2ccccc21`, the IC50 is over 20 µM.

`Cc1c(Cl)cccc1Nc1ncccc1C(=O)O` [CLONIXIN]: the 50% inhibitory concentration (IC50) worked out at 13 µM.

Consider `Cc1c(Nc2ncccc2C(=O)O)cccc1C(F)(F)F` [FLUNIXIN], for which the IC50 was determined as 8 µM.

In the case of `O=C(O)c1cccnc1Nc1cccc(C(F)(F)F)c1` [NIFLUMIC ACID], the IC50 came to 17 µM.

Test system in a further series: not listed separately
The experiment in a line: Protein binding in human plasma. The class given is ADME, cell-free. As to conditions: read-out: PPB.
Take `O=C(CCNC(=O)c1ccc(OC(F)(F)F)cc1)N[C@@H]1CCCc2ccccc21`: the fraction unbound was 0.01.

Test system in another series: not listed separately
The experiment in a line: Stability of the compound in PBS for 24 hrs. The class given is physicochemical. As to conditions: buffer.
Turning to `O=C(CCNC(=O)c1ccc(OC(F)(F)F)cc1)N[C@@H]1CCCc2ccccc21`, the Stability result is “Stable”.

The next series has as its system U-937. The experiment in a line: Induction of human U937 cell differentiation after 4 days by flow cytometry. The format is functional, cell-based. As to conditions: U-937, 96 h. Background: A flow cytometer gives signals particle by particle.
For orientation: EC50 means the midpoint of the concentration-response curve. For the molecule `O=C(O)c1cccnc1Nc1ccc(Cl)cc1`, the response was half-maximal at 6.1 µM (EC50).

Molecule `COc1ccc(Nc2ccccc2C(=O)O)cc1` displayed an EC50 of over 20 µM.

For the molecule `O=C(O)c1ccccc1Nc1ccc(Cl)cc1`, the EC50 was 17 µM.

`O=C(CCNC(=O)c1ccc(C(F)(F)F)cc1)N[C@@H]1CCCc2ccccc21` came in with an EC50 of 2.7 µM.

Consider `O=C(CCNC(=O)c1ccc(OC(F)(F)F)cc1)N[C@@H]1CCCc2ccccc21`, for which it took 8.8 µM to reach a half-maximal effect (EC50).

Molecule `Cc1ccc(C(=O)NCCC(=O)N[C@@H]2CCCc3ccccc32)cc1` yielded a concentration for a half-maximal effect (EC50) of 4.2 µM.

Molecule `O=C(CCNC(=O)c1cccc(Cl)c1)N[C@@H]1CCCc2ccccc21` returned an EC50 of 8.8 µM.

`O=C(CCNC(=O)c1ccc(Cl)cc1)N[C@@H]1CCCc2ccccc21` came in with an EC50 of 5.6 µM.

Consider `COc1ccc(C(=O)NCCC(=O)N[C@@H]2CCCc3ccccc32)cc1`, for which the response was half-maximal at 12 µM (EC50).

Consider `O=C(CCNC(=O)c1ccc2c(c1)OC(F)(F)O2)N[C@@H]1CCCc2ccccc21`, for which the EC50 is 4.4 µM.

`O=C(CCNC(=O)c1ccc(Cl)c(Cl)c1)N[C@@H]1CCCc2ccccc21` came in with an EC50 of 2.4 µM.

In turn, `O=C(O)c1cccnc1Nc1ccc(OC(F)(F)F)cc1` displayed an EC50 of 5.6 µM.

On to `O=C(O)c1cccnc1Nc1ccc(F)cc1`, for which the EC50 is over 20 µM.

As for `O=C(O)c1cccnc1Nc1ccccc1`, the EC50 is over 20 µM.

On to `O=C(O)c1ccc(Cl)cc1Nc1ccccc1`, for which the half-maximal effective concentration (EC50) was over 20 µM.

`Cc1c(-c2ccc(-c3ccccc3F)cc2)nc2ccc(F)cc2c1C(=O)O` [BREQUINAR] showed an EC50 of 0.044 µM.

Take `Cc1c(Cl)cccc1Nc1ncccc1C(=O)O` [CLONIXIN]: the EC50 was over 20 µM.

Consider `Cc1c(Nc2ncccc2C(=O)O)cccc1C(F)(F)F` [FLUNIXIN], for which the concentration for a half-maximal effect (EC50) was over 20 µM.

`O=C(O)c1cccnc1Nc1cccc(C(F)(F)F)c1` [NIFLUMIC ACID]: the EC50 is over 20 µM.

Test system in another series: not listed separately
The experiment in a line: Stability of the compound in human plasma for 5 hrs. The class given is ADME, cell-free.
Conditions: not given
Turning to `O=C(CCNC(=O)c1ccc(OC(F)(F)F)cc1)N[C@@H]1CCCc2ccccc21`, the Stability entry is reported as “Stable”.

Test system in the next series: not listed separately
The series can be described thus: Solubility of the compound in PBS at pH 7.4. The class given is physicochemical.
Conditions: not given
As usually defined, the solubility is the concentration that dissolves in the medium under given conditions. Lower therefore signals a poorly soluble substance. Molecule `O=C(CCNC(=O)c1ccc(OC(F)(F)F)cc1)N[C@@H]1CCCc2ccccc21` yielded a solubility of 2.5 µM (≈ 1.02 µg/mL).

Test system in the next series: not listed separately
The experiment in a line: Induction of bone marrow cell differentiation isolated from ER-HOXA9 fusion protein expressed mouse harboring GFP-lysozyme assessed as upregulation of CD11b/MAC1 after 4 days by flow cytometry. The format is functional, cell-based. As to conditions: 96 h.
Take `O=C(O)c1cccnc1Nc1ccc(Cl)cc1`: the EC50 amounted to 3 µM.

In the case of `COc1ccc(Nc2ccccc2C(=O)O)cc1`, the EC50 is over 20 µM.

Turning to `O=C(O)c1ccccc1Nc1ccc(Cl)cc1`, the EC50 worked out at 10 µM.

In the case of `O=C(CCNC(=O)c1ccc(C(F)(F)F)cc1)N[C@@H]1CCCc2ccccc21`, the EC50 amounted to 3.6 µM.

Regarding `O=C(CCNC(=O)c1ccc(OC(F)(F)F)cc1)N[C@@H]1CCCc2ccccc21`, the EC50 worked out at 1.8 µM.

For the molecule `Cc1ccc(C(=O)NCCC(=O)N[C@@H]2CCCc3ccccc32)cc1`, the EC50 was 8.1 µM.

In the case of `O=C(CCNC(=O)c1cccc(Cl)c1)N[C@@H]1CCCc2ccccc21`, the EC50 was found to be 7.9 µM.

For `O=C(CCNC(=O)c1ccc(Cl)cc1)N[C@@H]1CCCc2ccccc21`, the EC50 came to 4.5 µM.

For `COc1ccc(C(=O)NCCC(=O)N[C@@H]2CCCc3ccccc32)cc1`, the EC50 worked out at 5 µM.

As for `O=C(CCNC(=O)c1ccc2c(c1)OC(F)(F)O2)N[C@@H]1CCCc2ccccc21`, the EC50 worked out at 4.7 µM.

In the case of `O=C(CCNC(=O)c1ccc(Cl)c(Cl)c1)N[C@@H]1CCCc2ccccc21`, the half-maximal effective concentration (EC50) came to 3.2 µM.

As for `O=C(O)c1cccnc1Nc1ccc(OC(F)(F)F)cc1`, the half-maximal effective concentration (EC50) turned out to be 3.7 µM.

`O=C(O)c1cccnc1Nc1ccc(F)cc1`: the EC50 was over 20 µM.

In the case of `O=C(O)c1cccnc1Nc1ccccc1`, the EC50 was over 20 µM.

With `O=C(O)c1ccc(Cl)cc1Nc1ccccc1`, the EC50 is over 20 µM.

For `Cc1c(-c2ccc(-c3ccccc3F)cc2)nc2ccc(F)cc2c1C(=O)O` [BREQUINAR], the EC50 stood at 0.51 µM.

Regarding `Cc1c(Cl)cccc1Nc1ncccc1C(=O)O` [CLONIXIN], the EC50 is over 20 µM.

For the molecule `Cc1c(Nc2ncccc2C(=O)O)cccc1C(F)(F)F` [FLUNIXIN], the EC50 was found to be 16 µM.

For the molecule `O=C(O)c1cccnc1Nc1cccc(C(F)(F)F)c1` [NIFLUMIC ACID], the EC50 is over 20 µM.

The subject of the next series is THP-1. The series can be described thus: Induction of human THP1 cell differentiation after 4 days by flow cytometry. The format is functional, cell-based. Particulars: THP-1, 96 h.
Molecule `O=C(O)c1cccnc1Nc1ccc(Cl)cc1` returned an EC50 of 10.7 µM.

As for `COc1ccc(Nc2ccccc2C(=O)O)cc1`, the EC50 is over 20 µM.

The molecule `O=C(O)c1ccccc1Nc1ccc(Cl)cc1` showed an EC50 of over 20 µM.

For the molecule `O=C(CCNC(=O)c1ccc(C(F)(F)F)cc1)N[C@@H]1CCCc2ccccc21`, the EC50 was found to be 2.5 µM.

Take `O=C(CCNC(=O)c1ccc(OC(F)(F)F)cc1)N[C@@H]1CCCc2ccccc21`: the EC50 came out at 6.5 µM.

On to `Cc1ccc(C(=O)NCCC(=O)N[C@@H]2CCCc3ccccc32)cc1`, for which the EC50 was determined as 2.7 µM.

As to `O=C(CCNC(=O)c1cccc(Cl)c1)N[C@@H]1CCCc2ccccc21`, a half-maximal response (EC50) required 6.5 µM.

`O=C(CCNC(=O)c1ccc(Cl)cc1)N[C@@H]1CCCc2ccccc21` gave an EC50 of 3.2 µM.

The molecule `COc1ccc(C(=O)NCCC(=O)N[C@@H]2CCCc3ccccc32)cc1` registered an EC50 of 5.1 µM.

As to `O=C(CCNC(=O)c1ccc2c(c1)OC(F)(F)O2)N[C@@H]1CCCc2ccccc21`, the EC50 was 4.3 µM.

In turn, `O=C(CCNC(=O)c1ccc(Cl)c(Cl)c1)N[C@@H]1CCCc2ccccc21` displayed a concentration giving a half-maximal response (EC50) of 2.5 µM.

Take `O=C(O)c1cccnc1Nc1ccc(OC(F)(F)F)cc1`: the EC50 stood at 7.7 µM.

On to `O=C(O)c1cccnc1Nc1ccc(F)cc1`, for which the EC50 was over 20 µM.

The molecule `O=C(O)c1cccnc1Nc1ccccc1` came in with an EC50 of over 20 µM.

The molecule `O=C(O)c1ccc(Cl)cc1Nc1ccccc1` showed an EC50 of over 20 µM.

As to `Cc1c(-c2ccc(-c3ccccc3F)cc2)nc2ccc(F)cc2c1C(=O)O` [BREQUINAR], the EC50 came out at 0.094 µM.

In the case of `Cc1c(Cl)cccc1Nc1ncccc1C(=O)O` [CLONIXIN], the EC50 was over 20 µM.

For the molecule `Cc1c(Nc2ncccc2C(=O)O)cccc1C(F)(F)F` [FLUNIXIN], the 50% effective concentration (EC50) was over 20 µM.

The molecule `O=C(O)c1cccnc1Nc1cccc(C(F)(F)F)c1` [NIFLUMIC ACID] displayed an EC50 of over 20 µM.

Test system in a further series: not listed separately
The series can be described thus: Protein binding in mouse plasma. The format is ADME, cell-free. As to conditions: read-out: PPB.
Turning to `O=C(CCNC(=O)c1ccc(OC(F)(F)F)cc1)N[C@@H]1CCCc2ccccc21`, the fraction unbound worked out at 0.01.
